The source of these data is patent publication US20260125400A1, “TYK2 DEGRADERS AND USES THEREOF” (Kymera Therapeutics, Inc., priority 2023, published 2026).

Some results are limits rather than exact numbers.

The assay addresses T1, TYK2 (Homo sapiens, UniProt P29597).
T1 construct: Degradation of TYK2 in cells was quantitatively measured using Meso Scale Discovery (MSD) technology; endogenous in cells; host or cells: OCI-LY10
In words: TYK2 MSD degradation in OCI-LY10 cells. Type of assay: cell-based. Conditions: OCI-LY10 cells, 4 to 24 hours incubation; for DC50: read-out: TYK2 MSD OCI-LY10 Rel-DC50. In short, it runs like this:
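OCI-LY10 cells were treated with 9-dose 1:3 series (top 1 to 10 μM final) for 4 to 24 hours at 37° C. Lysate TYK2 quantified by MSD sandwich immunoassay; DC50 and Dmax from four-parameter inhibitor vs. response fit.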

The term DC50 denotes the concentration giving 50% degradation. Broadly, the Dmax is the greatest extent of degradation seen.

T1 sequence (P29597 whole entry): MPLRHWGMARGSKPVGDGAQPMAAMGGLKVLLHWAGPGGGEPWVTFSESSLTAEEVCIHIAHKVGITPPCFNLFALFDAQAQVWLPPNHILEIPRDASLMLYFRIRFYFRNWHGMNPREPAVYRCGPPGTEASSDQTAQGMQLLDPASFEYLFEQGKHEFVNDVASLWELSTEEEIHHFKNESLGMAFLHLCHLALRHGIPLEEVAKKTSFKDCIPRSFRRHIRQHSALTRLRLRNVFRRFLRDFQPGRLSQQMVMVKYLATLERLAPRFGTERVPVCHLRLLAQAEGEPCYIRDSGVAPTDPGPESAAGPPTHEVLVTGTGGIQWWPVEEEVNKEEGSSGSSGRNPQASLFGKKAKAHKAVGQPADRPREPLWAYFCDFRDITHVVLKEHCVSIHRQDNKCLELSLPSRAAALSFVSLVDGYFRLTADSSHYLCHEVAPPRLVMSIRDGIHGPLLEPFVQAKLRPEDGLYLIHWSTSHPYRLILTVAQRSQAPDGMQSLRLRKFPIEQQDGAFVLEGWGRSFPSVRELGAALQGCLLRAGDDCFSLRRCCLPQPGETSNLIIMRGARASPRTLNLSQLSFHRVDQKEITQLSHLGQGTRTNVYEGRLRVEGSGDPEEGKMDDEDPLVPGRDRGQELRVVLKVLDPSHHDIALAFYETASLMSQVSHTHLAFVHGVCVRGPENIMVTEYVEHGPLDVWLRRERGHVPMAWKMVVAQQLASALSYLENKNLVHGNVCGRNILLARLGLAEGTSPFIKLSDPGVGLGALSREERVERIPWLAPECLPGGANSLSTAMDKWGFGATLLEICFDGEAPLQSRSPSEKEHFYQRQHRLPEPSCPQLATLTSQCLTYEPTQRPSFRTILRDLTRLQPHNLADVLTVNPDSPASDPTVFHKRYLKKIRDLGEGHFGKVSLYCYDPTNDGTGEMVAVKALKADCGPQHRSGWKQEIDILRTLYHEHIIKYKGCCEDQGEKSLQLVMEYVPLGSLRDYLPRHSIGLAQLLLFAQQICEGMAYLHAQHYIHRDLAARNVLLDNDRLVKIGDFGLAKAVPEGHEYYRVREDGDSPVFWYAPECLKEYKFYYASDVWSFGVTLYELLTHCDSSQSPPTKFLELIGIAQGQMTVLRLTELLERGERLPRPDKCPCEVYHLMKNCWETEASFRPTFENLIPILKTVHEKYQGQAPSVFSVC

On to `CNc1cc(N2CCc3c(-c4ccc(CN5CCC6(CC5)CC(COc5ccc(Cl)c(C7CCC(=O)NC7=O)c5)C6)cn4)cccc32)nn2c(C(=O)N[C@@H]3C[C@@H]3F)cnc12` (stereo partly drawn) [I-461], for which the “TYK2 MSD OCI-LY10 Dmax %” value is reported as “D (D (<50%))” and the DC50 is less than 0.01 µM.
As for `CNc1cc(N2CCc3c(-c4ccc(CN5CC6(CCC(COc7ccc(Cl)c(C8CCC(=O)NC8=O)c7)CC6)C5)cn4)cccc32)nn2c(C(=O)N[C@@H]3C[C@@H]3F)cnc12` (stereo partly drawn) [I-462], the “TYK2 MSD OCI-LY10 Dmax %” value is “D (D (<50%))” and the DC50 is 0.01 to 0.1 µM.
Turning to `CNc1cc(N2CCc3c(-c4ccc(CN5CC6(CCC(COc7ccc(C8CCC(=O)NC8=O)c(Cl)c7)CC6)C5)cn4)cccc32)nn2c(C(=O)N[C@@H]3C[C@@H]3F)cnc12` (stereo partly drawn) [I-463], the “TYK2 MSD OCI-LY10 Dmax %” value is “D (D (<50%))” and the half-maximal degradation concentration (DC50) was more than 0.1 µM.
With `CNc1cc(N2CCc3c(-c4cnc(CN5CC6(CCN(C(=O)c7ccc(Cl)c(N8CCC(=O)NC8=O)c7)CC6)C5)nc4)cccc32)nn2c(C(=O)N[C@@H]3C[C@@H]3F)cnc12` [I-465], the “TYK2 MSD OCI-LY10 Dmax %” value is listed as “B (B (90 to >75%))” and the half-maximal degradation concentration (DC50) was less than 0.01 µM.
Consider `CNc1cc(N2CCc3c(-c4cnc(CN5CC6(CCN(C(=O)c7ccc(Cl)c(N8CCC(=O)NC8=O)c7)CC6)C5)cn4)cccc32)nn2c(C(=O)N[C@@H]3C[C@@H]3F)cnc12` [I-466], for which the “TYK2 MSD OCI-LY10 Dmax %” value is “A (A (>90%))” and the DC50 was less than 0.001 µM.
For `CNc1cc(N2CCc3c(C#CCN4CCC(N5CCC(C6CCN(c7ccc8c(c7)n(C)c(=O)n8C7CCC(=O)NC7=O)CC6)CC5)C(F)(F)C4)cccc32)nn2c(C(=O)N[C@@H]3C[C@@H]3F)cnc12` (stereo partly drawn) [I-467], in that order: “B (B (90 to >75%))” and less than 0.01 µM.
The corresponding values for `CNc1cc(N2CCc3c(CN4CCC(N5CC(CN6CCN(c7ccc8c(c7)n(C)c(=O)n8C7CCC(=O)NC7=O)CC6)C5)C(F)(F)C4)cccc32)nn2c(C(=O)N[C@@H]3C[C@@H]3F)cnc12` (stereo partly drawn) [I-468] are “B (B (90 to >75%))” and less than 0.001 µM.
The corresponding values for `CNc1cc(N2CCc3c(-c4ccc(CN5CCC(N6CCC(CC#Cc7ccc8c(c7)n(C)c(=O)n8C7CCC(=O)NC7=O)CC6)C(F)(F)C5)cn4)cccc32)nn2c(C(=O)N[C@@H]3C[C@@H]3F)cnc12` (stereo partly drawn) [I-469] are “B (B (90 to >75%))” and less than 0.01 µM.
With `CNc1cc(N2CCc3c(-c4ccc(CN5CCC(N6CC(N7CCN(c8ccc9c(c8F)n(C)c(=O)n9C8CCC(=O)NC8=O)CC7)C6)C(F)(F)C5)cn4)cccc32)nn2c(C(=O)N[C@@H]3C[C@@H]3F)cnc12` (stereo partly drawn) [I-470], the “TYK2 MSD OCI-LY10 Dmax %” value is given as “B (B (90 to >75%))” and the DC50 is less than 0.001 µM.
The corresponding values for `CNc1cc(N2CCc3c(CN4CCC(N5CC(N6CCN(c7cccc8c7n(C)c(=O)n8C7CCC(=O)NC7=O)CC6)C5)C(F)(F)C4)cccc32)nn2c(C(=O)N[C@@H]3C[C@@H]3F)cnc12` (stereo partly drawn) [I-471] are “B (B (90 to >75%))” and less than 0.001 µM.
With `CNc1cc(N2CCc3c(C#CCN4CCC(N5CCC6(CCN(c7ccc8c(c7)n(C)c(=O)n8C7CCC(=O)NC7=O)CC6)CC5)C(F)(F)C4)cccc32)nn2c(C(=O)N[C@@H]3C[C@@H]3F)cnc12` (stereo partly drawn) [I-486, 6-(4-(3-(4-(9-(1-(2,6-Dioxopiperidin-3-yl)-3-methyl-2-oxo-2,3-dihydro-LH-benzo[d]imidazol-5-yl)-3,9-diazaspiro[5.5]undecan-3-yl)-3,3-difluoropiperidin-1-yl)prop-1-yn-1-yl)indolin-1-yl)-N-((1R,2S)-2-fluorocyclopropyl)-8-(methylamino)imidazo[1,2-b]pyridazine-3-carboxamide], the Dmax was 75 to 90% and the DC50 is less than 0.01 µM.
On to `CNc1cc(N2CCc3c(CN4CCC(N5CCC(CC#Cc6cccc7c6n(C)c(=O)n7C6CCC(=O)NC6=O)CC5)C(F)(F)C4)cccc32)nn2c(C(=O)NC3CC3F)cnc12` (stereo not drawn) [I-488], for which the “TYK2 MSD OCI-LY10 Dmax %” value is reported as “D (D (<50%))” and the DC50 was 0.01 to 0.1 µM.
